{"source": "patent US20090318496A1", "about": "“PREPARATION CONTAINING FIBRATE AGENT AND PROCESS FOR PRODUCING THE SAME” (ASKA Pharmaceutical Co., Ltd., priority 2006, published 2009)", "key": {"[1]": {"test_system": "lipid and others in blood (TC, TG, PL, NEFA in serum)", "test": "Decrease of lipid in blood by combination use of fenofibrate and pitavastatin in dog (serum TC, TG, PL, NEFA)", "format": "in vivo", "procedure": "Dogs [female and male beagles (YAKUKEN BEAGLE) (11 male dogs and 2 female dogs, 27 to 73 months old)] were used for the examination. Incidentally, each of the dogs was accommodated in a separate bracket cage in a breeding room under the following conditions: a room temperature of 23±3° C., a humidity of 50±10%, a light period of 8:00 to 20:00, and a dark period of 20:00 to 8:00. Moreover, the dog was given 300 g of CD-5M (manufactured by CLEA Japan, Inc.) as a food once a day. Incidentally, the dog was freely allowed to have tap water.\n(§1) Four hours (Day0-4 hr) and 24 hours (Day0-24 hr) after feeding on the day before the administration start day, blood was collected from antebrachial radial veins, and serum and plasma containing sodium citrate (a citric sodium aqueous solution having a concentration of 3.8% by weight) were obtained. Then using the serum, the total cholesterol (TC), the triglyceride (TG), the phospholipid (PL), and the free fatty acid (NEFA) were quantitatively determined by a Toshiba automatic analyzer (manufactured by Toshiba Medical Systems Corporation, TBA-120FR). Moreover, using the sodium citrate-containing plasma, the amount of fibrinogen was quantitatively determined in accordance with the thrombin time method.\n(§2) Incidentally, feeding was performed immediately after every administration.\n(§3) Blood was collected after 4 hours of the seventh administration (Day7-4 hr). Using the same manner as in the case of the Day0-4 hr, serum and sodium citrate-containing plasma were obtained, and each of the examinations was performed.\nIncidentally, the obtained value from each test was regarded as a significant difference when the difference value was less than 5%.\nIncidentally, the relative index of each component was calculated based on the formula: (the average value of the concentration in the blood after the administration)/(the average value of the concentration in the blood before the administration)."}, "fibrinogen": {"test_system": "fibrinogen", "test": "Amount of fibrinogen in sodium citrate-containing plasma of dogs, thrombin time method", "format": "in vivo", "conditions": "dog sodium citrate plasma, Day 7-4 hr minus Day0-4 hr; FEN 20 mg/kg and/or PIT 2 mg/kg orally once a day for 7 days; average ± standard error", "procedure": "as §1, §2, §3\nThe quantitation results were shown as “an average value±a standard error”. […] Incidentally, the obtained value from each test was regarded as a significant difference when the difference value was less than 5%."}, "[2]": {"conditions": "pitavastatin 4 mg a day for 6 days vs combined with fenofibrate 160 mg a day or gemfibrozil 600 mg twice a day for 7 days; cited from earlier work"}, "[3]": {"conditions": "Day 7-4 hr minus Day0-4 hr, FEN 20 mg/kg and/or PIT 2 mg/kg orally once a day for 7 days, average ± standard error"}, "[4]": {"conditions": "Day 7-4 hr, FEN 20 mg/kg and/or PIT 2 mg/kg orally for 7 days"}}}
{"smiles": "CC(C)OC(=O)C(C)(C)Oc1ccc(C(=O)c2ccc(Cl)cc2)cc1", "note": "[FEN, Fenofibrate]", "values": [{"measurement": "ΔNEFA", "setting": "[1]; [3]", "result": "−25 ± 20", "unit": "μEq/L"}, {"measurement": "ΔPL", "setting": "[1]; [3]", "result": "-71 ± 11", "unit": "mg/dL"}, {"measurement": "ΔTG", "setting": "[1]; [3]", "result": "-38.7 ± 16.3", "unit": "mg/dL"}, {"measurement": "ΔFibrinogen", "setting": "fibrinogen", "result": "6 ± 22", "unit": "mg/dL"}]}
{"smiles": "O=C(O)C[C@H](O)C[C@H](O)/C=C/c1c(C2CC2)nc2ccccc2c1-c1ccc(F)cc1", "note": "[PIT, Pitavastatin]", "values": [{"measurement": "ΔNEFA", "setting": "[1]; [3]", "result": "−6 ± 102", "unit": "μEq/L"}, {"measurement": "ΔPL", "setting": "[1]; [3]", "result": "-61 ± 9", "unit": "mg/dL"}, {"measurement": "ΔTC", "setting": "[1]; [3]", "result": "-25.0 ± 3.6", "unit": "mg/dL"}, {"measurement": "ΔTG", "setting": "[1]; [3]", "result": "-11.5 ± 4.8", "unit": "mg/dL"}, {"measurement": "Relative index of NEFA (average concentration after/before administration)", "setting": "[1]; [4]", "result": 0.978}, {"measurement": "Relative index of PL (average concentration after/before administration)", "setting": "[1]; [4]", "result": 0.795}, {"measurement": "Relative index of TC (average concentration after/before administration)", "setting": "[1]; [4]", "result": 0.797}, {"measurement": "Relative index of TG (average concentration after/before administration)", "setting": "[1]; [4]", "result": 0.791}, {"measurement": "Drug interactions (pharmacokinetic parameter, concentration of unchanged pitavastatin in the blood)", "setting": "[2]", "result": "low degree of the drug interactions"}, {"measurement": "ΔFibrinogen", "setting": "fibrinogen", "result": "11 ± 11", "unit": "mg/dL"}]}
